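Dose response: 5 concentrations. Exposure: 48 h. Format: 96-well plates. Endpoint: linear interpolation; highest concentration if not reached. The concentration for 50% growth inhibition is given as GI50.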 Calls of active or inactive are those of the source. Rule as the data show it: active = GI50 up to about 1.1 µM and inactive = higher.
Assays:
Experiment in all cases: NCI tumour cell line growth inhibition, 48 h
SW-620 = tested on: SW-620
EKVX = tested on: EKVX
COLO 205 = tested on: COLO 205
DU-145 = tested on: DU-145
Hs-578T = tested on: Hs-578T
HCT-15 = tested on: HCT-15
SF-268 = tested on: SF-268
MDA-N = tested on: MDA-N
Malme-3M = tested on: Malme-3M
HT-29 = tested on: HT-29
786-0 = tested on: 786-0
HOP-62 = tested on: HOP-62
NCI-H522 = tested on: NCI-H522
CCRF-CEM = tested on: CCRF-CEM
HCC 2998 = tested on: HCC 2998
NCI-H460 = tested on: NCI-H460
OVCAR-3 = tested on: OVCAR-3
A549 = tested on: A549
MOLT-4 = tested on: MOLT-4
K562 = tested on: K562
T47D = tested on: T47D
UACC-62 = tested on: UACC-62
SK-MEL-28 = tested on: SK-MEL-28
SK-OV-3 = tested on: SK-OV-3
RXF 393 = tested on: RXF 393
OVCAR-4 = tested on: OVCAR-4
PC-3 = tested on: PC-3
RPMI-8226 = tested on: RPMI-8226
MDA-MB-231 = tested on: MDA-MB-231
NCI-H23 = tested on: NCI-H23
IGROV-1 = tested on: IGROV-1
ACHN = tested on: ACHN
CAKI-1 = tested on: CAKI-1
OVCAR-5 = tested on: OVCAR-5
KM12 = tested on: KM12
MCF7 = tested on: MCF7
NCI/ADR-RES = tested on: NCI/ADR-RES
UACC-257 = tested on: UACC-257
LOX IMVI = tested on: LOX IMVI
SNB-75 = tested on: SNB-75
U-251 = tested on: U-251
OVCAR-8 = tested on: OVCAR-8
TK-10 = tested on: TK-10
SF-295 = tested on: SF-295
HL-60 = tested on: HL-60
NCI-H226 = tested on: NCI-H226
A498 = tested on: A498
M14 = tested on: M14
SK-MEL-5 = tested on: SK-MEL-5
UO-31 = tested on: UO-31
SNB-19 = tested on: SNB-19
HOP-92 = tested on: HOP-92
SF-539 = tested on: SF-539
SR = tested on: SR
SK-MEL-2 = tested on: SK-MEL-2
MDA-MB-435 = tested on: MDA-MB-435
BT-549 = tested on: BT-549
HCT-116 = tested on: HCT-116
SN12C = tested on: SN12C

Measured: GI50

COC(=O)C1=C(C)NC(=O)N2[C@@H](CCOCc3ccccc3)CC[C@@H]12
> 50 µM: HCT-15
inactive: SW-620 > 50 µM | EKVX > 50 µM | COLO 205 > 50 µM | DU-145 > 50 µM | Hs-578T > 50 µM | SF-268 > 50 µM | MDA-N > 50 µM | Malme-3M > 50 µM | HT-29 > 50 µM | 786-0 > 50 µM | HOP-62 > 50 µM | NCI-H522 > 50 µM | CCRF-CEM > 50 µM | HCC 2998 > 50 µM | NCI-H460 > 50 µM | OVCAR-3 > 50 µM | A549 > 50 µM | MOLT-4 47.9 µM | K562 > 50 µM | T47D 12.4 µM | UACC-62 > 50 µM | SK-MEL-28 > 50 µM | SK-OV-3 > 50 µM | RXF 393 13.1 µM | OVCAR-4 > 50 µM | PC-3 > 50 µM | RPMI-8226 > 50 µM | MDA-MB-231 > 50 µM | NCI-H23 > 50 µM | IGROV-1 > 50 µM | ACHN > 50 µM | CAKI-1 > 50 µM | OVCAR-5 > 50 µM | KM12 > 50 µM | MCF7 > 50 µM | NCI/ADR-RES > 50 µM | UACC-257 > 50 µM | LOX IMVI > 50 µM | SNB-75 25 µM | U-251 > 50 µM | OVCAR-8 > 50 µM | TK-10 > 50 µM | SF-295 > 50 µM | HL-60 > 50 µM | NCI-H226 > 50 µM | A498 > 50 µM | M14 > 50 µM | SK-MEL-5 > 50 µM | UO-31 > 50 µM | SNB-19 > 50 µM | HOP-92 > 50 µM | SF-539 > 50 µM | SR > 50 µM | SK-MEL-2 > 50 µM | MDA-MB-435 > 50 µM

CC1=C(C(=O)OCCO[N+](=O)[O-])C(c2ccccc2C(F)(F)F)C(C(=O)OC(C)C)=C(C)N1 (centres undefined)
12.2 µM: HCT-15
inactive: SW-620 30.1 µM | EKVX 24.6 µM | COLO 205 14 µM | DU-145 39.4 µM | SF-268 16.3 µM | Malme-3M 18.3 µM | HT-29 14.2 µM | 786-0 15 µM | HOP-62 20.6 µM | NCI-H522 16.9 µM | CCRF-CEM 27.3 µM | HCC 2998 22.4 µM | NCI-H460 10.7 µM | OVCAR-3 10.5 µM | A549 13.2 µM | MOLT-4 4.7 µM | K562 3.94 µM | T47D 19.8 µM | UACC-62 19.3 µM | SK-MEL-28 16.6 µM | SK-OV-3 39.6 µM | RXF 393 10.3 µM | BT-549 13.5 µM | OVCAR-4 12.7 µM | PC-3 3.36 µM | RPMI-8226 5.12 µM | MDA-MB-231 10.9 µM | NCI-H23 19.6 µM | IGROV-1 13.1 µM | ACHN 25.7 µM | CAKI-1 11.4 µM | OVCAR-5 14.8 µM | KM12 8.63 µM | MCF7 16 µM | NCI/ADR-RES 14.3 µM | UACC-257 11.2 µM | HCT-116 9.84 µM | SN12C 16.8 µM | LOX IMVI 13.9 µM | U-251 14.6 µM | OVCAR-8 17.7 µM | TK-10 18.1 µM | SF-295 11.8 µM | HL-60 15.9 µM | NCI-H226 9.73 µM | A498 24.1 µM | M14 13.1 µM | SK-MEL-5 10 µM | UO-31 11.3 µM | SNB-19 18.2 µM | HOP-92 3.03 µM | SF-539 17.3 µM | SR 41.7 µM | SK-MEL-2 12.8 µM | MDA-MB-435 16.6 µM

CCOC(=O)c1sc2nc(SC)nc3c2c1NCN3C1CC1
inactive: COLO 205 > 100 µM | DU-145 > 100 µM | Hs-578T 74.5 µM | SF-268 > 100 µM | Malme-3M > 100 µM | HT-29 > 100 µM | 786-0 48.2 µM | HOP-62 > 100 µM | CCRF-CEM > 100 µM | HCC 2998 > 100 µM | NCI-H460 > 100 µM | OVCAR-3 > 100 µM | A549 > 100 µM | T47D 48.6 µM | UACC-62 > 100 µM | SK-MEL-28 > 100 µM | SK-OV-3 > 100 µM | RXF 393 > 100 µM | BT-549 > 100 µM | OVCAR-4 > 100 µM | PC-3 > 100 µM | RPMI-8226 > 100 µM | MDA-MB-231 > 100 µM | NCI-H23 > 100 µM | IGROV-1 > 100 µM | ACHN > 100 µM | CAKI-1 > 100 µM | OVCAR-5 > 100 µM | KM12 > 100 µM | NCI/ADR-RES > 100 µM | UACC-257 > 100 µM | HCT-116 > 100 µM | SN12C > 100 µM | LOX IMVI > 100 µM | SNB-75 38.8 µM | U-251 > 100 µM | OVCAR-8 36.6 µM | TK-10 > 100 µM | SF-295 > 100 µM | NCI-H226 > 100 µM | A498 > 100 µM | M14 > 100 µM | SK-MEL-5 > 100 µM | UO-31 > 100 µM | SNB-19 > 100 µM | HOP-92 > 100 µM | SK-MEL-2 > 100 µM | MDA-MB-435 > 100 µM
> 100 µM: HCT-15

CC(C)(C)[Si](C)(C)OCC1CCC(n2cnc3c(NC(=O)c4ccccc4)ncnc32)O1 (centres undefined)
inactive: SW-620 20 µM | EKVX 17.6 µM | COLO 205 18.5 µM | DU-145 19.4 µM | Hs-578T 14 µM | SF-268 17.7 µM | MDA-N 17.2 µM | Malme-3M 19.9 µM | HT-29 19.1 µM | 786-0 17.5 µM | HOP-62 22 µM | NCI-H522 16.4 µM | CCRF-CEM 22 µM | HCC 2998 19.5 µM | NCI-H460 18 µM | OVCAR-3 14 µM | A549 19 µM | MOLT-4 18.2 µM | K562 18.7 µM | T47D 26.4 µM | UACC-62 14 µM | SK-MEL-28 14.3 µM | SK-OV-3 20 µM | RXF 393 22 µM | OVCAR-4 21.8 µM | PC-3 20.6 µM | RPMI-8226 33 µM | MDA-MB-231 20.7 µM | NCI-H23 18.4 µM | IGROV-1 18.1 µM | ACHN 19.2 µM | CAKI-1 21.4 µM | OVCAR-5 16.7 µM | KM12 17.3 µM | MCF7 23.9 µM | NCI/ADR-RES 16.6 µM | UACC-257 18.7 µM | HCT-116 19 µM | SN12C 18 µM | LOX IMVI 20.2 µM | SNB-75 10.4 µM | U-251 18.2 µM | OVCAR-8 28.5 µM | TK-10 20.5 µM | SF-295 18.2 µM | HL-60 18 µM | NCI-H226 15.1 µM | A498 21.1 µM | M14 16.7 µM | SK-MEL-5 11.5 µM | UO-31 1.54 µM | SNB-19 18.9 µM | HOP-92 16.6 µM | SF-539 18.3 µM | SR 29.9 µM | SK-MEL-2 19 µM | MDA-MB-435 15.8 µM
18.6 µM: HCT-15

From ChEMBL document CHEMBL1201862, “PubChem BioAssay data set” (2004)
